In data set [1] the test system is influenza virus A/Taiwan/1/86 (H1N1). Briefly: organism not typed. It counts as cell-based. The settings on record: CPE in MDCK cells, three days post-virus exposure, ATPlite. For orientation: Cellular ATP, detected with luciferase, serves as a proxy for viable cell number.
A further data set is described as follows: in vitro. The conditions noted are these: dog, TOX MDCK CC50.

Usually IC50 stands for the concentration needed to halve the response being measured. Read a low IC50 as higher potency. In general, CC50 refers to the concentration giving 50% cytotoxicity. The low end stands for harm at low concentration, the high end for better tolerance by the cells.

In turn, `Cn1cnc(C(=O)N[C@@H]2CCC[C@H](Nc3nc(-c4c[nH]c5c(F)cc(F)cc45)c(C#N)cc3F)C2)c1` [Compound 184] gave an IC50 in data set [1] (MDCK, 72 h) of 3 nM. The CC50 at 3 days in the data set “in vitro” was over 25 µM.

Take `Cc1nc(C(=O)N[C@@H]2CCC[C@H](Nc3nc(-c4c[nH]c5c(F)cc(F)cc45)ncc3F)C2)c(C)o1` (racemic) [Compound 93]: the IC50 in data set [1] (MDCK, 72 h) amounted to 39 nM. The same compound registered a CC50 at 3 days in the data set “in vitro” of over 25 µM.

As for `Cc1cc(C(=O)N[C@H]2CCC[C@@H](Nc3nc(-c4c[nH]c5c(F)cc(F)cc45)c(C(F)(F)F)cc3F)C2)on1` (racemic) [Compound 181], in data set [1] (MDCK, 72 h), it took 11 nM to reach half-maximal inhibition (IC50). Also, it took 16.4 µM to reach half-maximal cytotoxicity in the data set “in vitro” (CC50 at 3 days).

With `Cc1cc(F)c2[nH]cc(-c3ncc(F)c(N[C@H]4C5CCC(CC5)[C@@H]4C(=O)O)n3)c2c1` (racemic) [Compound 164], the IC50 in data set [1] (MDCK, 72 h) amounted to 11 nM. The same compound registered a CC50 at 3 days in “in vitro” of 1.7 µM.

Compound `O=C(N[C@@H]1CCC[C@H](Nc2nc(-c3c[nH]c4c(F)cc(F)cc34)ncc2F)C1)c1ccccn1` (racemic) [Compound 90] displayed an IC50 in data set [1] (MDCK, 72 h) of 9 nM. Besides, in the data set “in vitro”, half-maximal cytotoxicity (CC50 at 3 days) was put at 10.9 µM.

In turn, `Cc1cc(F)c2[nH]cc(-c3ncc(F)c(N[C@@H]4C5CCC(CC5)[C@H]4C(=O)O)n3)c2c1` [Compound 165] yielded an IC50 in data set [1] (MDCK, 72 h) of over 25000 nM. For the same compound, in “in vitro”, half-maximal cytotoxicity (CC50 at 3 days) was put at 2.3 µM.

The compound `Cn1cnc(C(=O)N[C@@H]2CCC[C@H](Nc3nc(-c4c[nH]c5c(F)cc(Cl)cc45)ncc3F)C2)c1` [Compound 26] registered an IC50 in data set [1] (MDCK, 72 h) of 3 nM. Also, the CC50 at 3 days in the data set “in vitro” was 7.9 µM.

With `Cn1nc(C(=O)O)cc1C(=O)N[C@@H]1CCC[C@H](Nc2nc(-c3c[nH]c4c(F)cc(F)cc34)ncc2F)C1` (relative stereo) [Compound 159, 5-(((1R*,3S*)-3-((2-(5,7-difluoro-1H-indol-3-yl)-5-fluoropyrimidin-4-yl)amino)cyclohexyl)carbamoyl)-1-methyl-1H-pyrazole-3-carboxylic acid], in data set [1] (MDCK, 72 h), the IC50 was 310 nM. Further, the CC50 at 3 days in the data set “in vitro” was over 25 µM.

For the compound `Cc1cc(C(=O)N[C@@H]2CCC[C@H](Nc3nc(-c4c[nH]c5c(F)cc(F)cc45)ncc3F)C2)nn1C` (racemic) [Compound 96], the IC50 in data set [1] (MDCK, 72 h) is 5 nM. This compound gave a CC50 at 3 days in “in vitro” of 10.5 µM.

On to `CC(C)(C)C(Cc1nnn[nH]1)Nc1nc(-c2c[nH]c3c(F)cc(F)cc23)ncc1F` (stereo not drawn) [Compound 19, 2-(5,7-difluoro-1H-indol-3-yl)-N-(3,3-dimethyl-1-(1H-tetrazol-5-yl)butan-2-yl)-5-fluoropyrimidin-4-amine], for which the IC50 in data set [1] (MDCK, 72 h) came out at 160 nM. The CC50 at 3 days in “in vitro” is 3.7 µM.

`CC(C)(C)C(CC(=O)O)Nc1nc(-c2c[nH]c3c(F)cc(F)cc23)c(C#N)cc1F` (stereo not drawn) [Compound 219] registered an IC50 in data set [1] (MDCK, 72 h) of 5 nM. This compound also came in with a CC50 at 3 days in the data set “in vitro” of 0.21 µM.

For `O=C(N[C@@H]1CCC[C@H](Nc2nc(-c3c[nH]c4c(F)cc(F)cc34)ncc2F)C1)c1cn(CCO)cn1` [Compound 88], in data set [1] (MDCK, 72 h), inhibition was half-maximal at 7 nM (IC50). In the data set “in vitro”, half-maximal cytotoxicity (CC50 at 3 days) was put at 11.5 µM.

Compound `CC(C)(C)C(CC(=O)O)Nc1nc(-c2c[nH]c3c(F)cc(Cl)cc23)ncc1F` (stereo not drawn) [Compound 39] returned an IC50 in data set [1] (MDCK, 72 h) of 11 nM. In “in vitro”, this compound had a CC50 at 3 days of 0.86 µM.

Compound `CC(C)(C)[C@H](CC(=O)O)Nc1nc(-c2c[nH]c3c(F)cc(F)cc23)ncc1F` [Compound 186] had an IC50 in data set [1] (MDCK, 72 h) of 10 nM. This compound also gave a CC50 at 3 days in “in vitro” of 3.8 µM.

With `COCc1cc(C(=O)N[C@@H]2CCC[C@H](Nc3nc(-c4c[nH]c5c(F)cc(F)cc45)ncc3F)C2)no1` [Compound 87], 40 nM corresponded to half-maximal inhibition in data set [1] (MDCK, 72 h) (IC50). The compound also displayed a CC50 at 3 days in “in vitro” of 2.4 µM.

`Cc1cc(F)c2[nH]cc(-c3nc(NC(CC(=O)O)C(C)(C)c4ccn(C)n4)c(F)cc3C#N)c2c1` (stereo not drawn) [Compound 25, 3-((5-cyano-3-fluoro-6-(7-fluoro-5-methyl-1H-indol-3-yl)pyridin-2-yl)amino)-4-methyl-4-(1-methyl-1H-pyrazol-3-yl)pentanoic acid] had an IC50 in data set [1] (MDCK, 72 h) of 41 nM. Further, half-maximal cytotoxicity in the data set “in vitro” (CC50 at 3 days) was put at 0.9 µM.

On to `Cn1nc(NS(N)(=O)=O)cc1C(=O)N[C@@H]1CCC[C@H](Nc2nc(-c3c[nH]c4c(F)cc(F)cc34)ncc2F)C1` (relative stereo) [Compound 227, N-((1R*,3S*)-3-((2-(5,7-difluoro-1H-indol-3-yl)-5-fluoropyrimidin-4-yl)-amino)cyclohexyl)-1-methyl-3-(sulfamoylamino)-1H-pyrazole-5-carboxamide], for which half-maximal inhibition in data set [1] (MDCK, 72 h) (IC50) required 15 nM. The compound also had a CC50 at 3 days in “in vitro” of over 25 µM.

In data set [1] (MDCK, 72 h), `Cn1nc(NS(C)(=O)=O)cc1C(=O)N[C@@H]1CCC[C@H](Nc2nc(-c3c[nH]c4c(F)cc(F)cc34)ncc2F)C1` (relative stereo) [Compound 226, N-((1R*,3S*)-3-((2-(5,7-difluoro-1H-indol-3-yl)-5-fluoropyrimidin-4-yl)-amino)cyclohexyl)-1-methyl-3-(methylsulfonamido)-1H-pyrazole-5-carboxamide] registered an IC50 of 3 nM. Moreover, the cytotoxic concentration (CC50) at 3 days in the data set “in vitro” stood at 17.5 µM.

The compound `Cn1cnc(C(=O)N[C@@H]2CCC[C@H](Nc3nc(-c4c[nH]c5c(F)cc(F)cc45)ncc3F)C2)c1` (racemic) [Compound 92] had an IC50 in data set [1] (MDCK, 72 h) of 4 nM. This compound also displayed a CC50 at 3 days in “in vitro” of 11.4 µM.

Turning to `O=C(N[C@H]1CCC[C@@H](Nc2nc(-c3c[nH]c4c(F)cc(F)cc34)c(-c3nnc[nH]3)cc2F)C1)N1CCCC1` (racemic) [Compound 24], the midpoint of inhibition in data set [1] (MDCK, 72 h), the IC50, lay at 420 nM. Besides, the CC50 at 3 days in the data set “in vitro” was over 25 µM.

Compound `O=C(N[C@@H]1CCC[C@H](Nc2nc(-c3c[nH]c4c(F)cc(F)cc34)ncc2F)C1)c1ccc(F)cn1` (racemic) [Compound 95] gave an IC50 in data set [1] (MDCK, 72 h) of 12 nM. In the data set “in vitro”, this compound came in with a CC50 at 3 days of over 25 µM.

In turn, `N#Cc1cc(F)c(N[C@@H]2CCC[C@H](NC(=O)N3CCCC3)C2)nc1-c1c[nH]c2c(F)cc(F)cc12` [Compound 162] gave an IC50 in data set [1] of 0.5 nM. In the data set “in vitro”, the CC50 at 3 days was over 23 µM.

In data set [1] (MDCK, 72 h), `Cc1cc(F)c2[nH]cc(-c3ncc(F)c(N[C@H]4CCC[C@@H](NC(=O)c5cn(C)cn5)C4)n3)c2c1` (racemic) [Compound 190] displayed an IC50 of 11 nM. This compound also yielded a CC50 at 3 days in “in vitro” of 13.1 µM.

In data set [1] (MDCK, 72 h), `O=C(N[C@H]1CCC[C@@H](Nc2nc(-c3c[nH]c4c(F)cc(F)cc34)ncc2F)C1)N1CCCC1` (single isomer, unassigned) [Compound 9, N-((1R*,3S*)-3-((2-(5,7-difluoro-1H-indol-3-yl)-5-fluoropyrimidin-4-yl)-amino)cyclohexyl)pyrrolidine-1-carboxamide] displayed an IC50 of 3 nM. This compound also displayed a CC50 at 3 days in “in vitro” of over 25 µM.

`Cc1[nH]nnc1C(=O)N[C@@H]1CCC[C@H](Nc2nc(-c3c[nH]c4c(F)cc(Cl)cc34)ncc2F)C1` [Compound 78] yielded an IC50 in data set [1] (MDCK, 72 h) of 2 nM. In the data set “in vitro”, half-maximal cytotoxicity (CC50 at 3 days) was put at 5.7 µM.

With `O=C(O)c1cccc(C(=O)N[C@@H]2CCC[C@H](Nc3nc(-c4c[nH]c5c(F)cc(F)cc45)ncc3F)C2)n1` [Compound 157], in data set [1] (MDCK, 72 h), the IC50 is 330 nM. In “in vitro”, this compound registered a CC50 at 3 days of over 25 µM.

In data set [1] (MDCK, 72 h), `C[C@H]1CC[C@H](C)N1C(=O)N[C@H]1CCC[C@@H](Nc2nc(-c3c[nH]c4c(F)cc(F)cc34)ncc2F)C1` (relative stereo) [Compound 14, N-((1R*3S*)-3-((2-(5,7-difluoro-1H-indol-3-yl)-5-fluoropyrimidin-4-yl)amino)cyclohexyl)-trans-2,5-dimethylpyrrolidine-1-carboxamide] registered an IC50 of 140 nM. The CC50 at 3 days in the data set “in vitro” was 10.4 µM.

Compound `O=C(N[C@@H]1CCC[C@H](Nc2nc(-c3c[nH]c4c(F)cc(F)cc34)ncc2F)C1)c1ccc(O)nn1` [Compound 203] gave an IC50 in data set [1] (MDCK, 72 h) of 2 nM. The compound further displayed a CC50 at 3 days in “in vitro” of over 25 µM.

Compound `O=C(N[C@@H]1CCC[C@H](Nc2nc(-c3c[nH]c4c(F)cc(F)cc34)ncc2F)C1)N1CCCC1` (racemic) [Compound 1, N-((cis)-3-((2-(5,7-difluoro-1H-indol-3-yl)-5-fluoropyrimidin-4-yl)amino)cyclohexyl)pyrrolidine-1-carboxamide] had an IC50 in data set [1] (MDCK, 72 h) of 3 nM. Moreover, the CC50 at 3 days in “in vitro” was determined as 10.2 µM.

Regarding `C[C@@H]1CC[C@H](C)N1C(=O)N[C@H]1CCC[C@@H](Nc2nc(-c3c[nH]c4c(F)cc(F)cc34)ncc2F)C1` (relative stereo) [Compound 13, N-((1R*,3S*)-3-((2-(5,7-difluoro-1H-indol-3-yl)-5-fluoropyrimidin-4-yl)-amino)cyclohexyl)-cis-2,5-dimethylpyrrolidine-1-carboxamide], in data set [1] (MDCK, 72 h), the IC50 amounted to 44 nM. Besides, the CC50 at 3 days in “in vitro” stood at 10.7 µM.

Regarding `CC(=O)NCc1cc(F)c(N[C@H]2CCC[C@@H](NC(=O)N3CCCC3)C2)nc1-c1c[nH]c2c(F)cc(F)cc12` (racemic) [Compound 6], in data set [1] (MDCK, 72 h), 50 nM corresponded to half-maximal inhibition (IC50). In the data set “in vitro”, this compound showed a CC50 at 3 days of over 25 µM.

Turning to `CN1CCC[C@H]1C(=O)N[C@H]1CCC[C@@H](Nc2nc(-c3c[nH]c4c(F)cc(F)cc34)ncc2F)C1` [Compound 82], the IC50 in data set [1] (MDCK, 72 h) worked out at 270 nM. The compound further came in with a CC50 at 3 days in “in vitro” of 12.9 µM.

Compound `Cn1[nH]c(=O)cc1C(=O)N[C@@H]1CCC[C@H](Nc2nc(-c3c[nH]c4c(F)cc(F)cc34)ncc2F)C1` [Compound 160] had an IC50 in data set [1] (MDCK, 72 h) of 0.6 nM. In the data set “in vitro”, the CC50 at 3 days was over 25 µM.

The compound `N#Cc1cc(F)c(N[C@H]2CCC[C@@H](NC(=O)[C@@H](O)c3ccccc3)C2)nc1-c1c[nH]c2c(F)cc(F)cc12` [Compound 213] showed an IC50 in data set [1] (MDCK, 72 h) of 390 nM. This compound returned a CC50 at 3 days in the data set “in vitro” of 3.4 µM.

Regarding `CC(C)(c1cccs1)C(CC(=O)O)Nc1nc(-c2c[nH]c3c(F)cc(F)cc23)ncc1F` (stereo not drawn) [Compound 230], the IC50 in data set [1] (MDCK, 72 h) amounted to 41 nM. Moreover, the midpoint of cytotoxicity in “in vitro”, the CC50 at 3 days, lay at 4 µM.

Compound `Cn1cnc(C(=O)NC2CC(Nc3nc(-c4c[nH]c5c(F)cc(F)cc45)ncc3F)CC(C)(C)C2)c1` (stereo not drawn) [Compound 202, N-(5-((2-(5,7-difluoro-1H-indol-3-yl)-5-fluoropyrimidin-4-yl)amino)-3,3-dimethylcyclohexyl)-1-methyl-1H-imidazole-4-carboxamide] displayed an IC50 in data set [1] (MDCK, 72 h) of 790 nM. The compound further showed a CC50 at 3 days in “in vitro” of 3.9 µM.

(Values after patent US10597390B2, “Indoles for use in influenza virus infection” (Janssen Sciences Ireland UC, priority 2014, dated 2020).)
